Assay results as given in US20100204243A1, “Process for the Preparation of Poly DL-Lactide-Co-Glycolide Nanoparticles Having Antitubercular Drugs Encapsulated Therein” (priority 2005, published 2010).
Converted amounts (≈) assume the structure as drawn.

Tests used:
[1] = Stability of ethambutol in the presence of isoniazid; type: physicochemical
Source text: 765/Del/2003. However, a disadvantage associated therewith is that due to its unstability properties, ethambutol would degrade.

M. tuberculosis = details: cited from earlier work

In the case of `CC[C@@H](CO)NCCN[C@@H](CC)CO` [ethambutol], the “stability in the presence of isoniazid” value [1] is given as “highly unstable” and the “minimum inhibitory concentration (MIC)” value (M. tuberculosis) is given as 1.5 µg/mL (≈ 7.34 µM).
